Results taken from patent US11440923B2, “Substituted macrocyclic indole derivatives” (Bayer Aktiengesellschaft, priority 2017, dated 2022).
Counter-ions that a name gives are not always drawn. Like-named read-outs stand apart in the source and are kept apart here.

Assays:
BCL-2 = BCL-2 (Homo sapiens (Human), UniProt P10415); experiment: Protein-protein interaction assay BCL-2/Bad BH3 peptide (BCL-2 assay, TR-FRET); assay type: binding; details: read-out: BCL-2 Assay IC50 (median)
Description: Assay 3 Protein-Protein Interaction Assay: BCL-2/Bad BH3 Peptide (BCL-2 Assay)
The dose-dependent inhibition by the compounds described in this invention of the interaction between BCL-2 and the BH3 domain of Bad (both human) was determined using a steady state binding competition assay with time-resolved fluorescence energy transfer (TR-FRET) readout. For that purpose BCL-2 (amino acids 1-211, C-terminal fused to a hexahistidine (6×His) tag (SEQ ID 5) and a synthetic Bad BH3-derived peptide of sequence Biotin-PEG2-PEG2-[…]-Nle-[…]-amide (SEQ ID 4) served as protein receptor and tracer ligand respectively. The recombinant BCL-2 protein (expressed in E. coli) was purchased from BPS Bioscience (San Diego, Calif., USA). The Bad BH3-derived peptide can be obtained from e.g. Biosyntan (Berlin, Germany).
In the assay 11 different concentrations of each compound (0.1 nM, 0.33 nM, 1.1 nM, 3.8 nM, 13 nM, 44 nM, 0.15 μM, 0.51 μM, 1.7 μM, 5.9 μM and 20 μM) were typically measured as duplicates in the same microtiter plate. For that, 100-fold concentrated DMSO solutions were prepared by serial dilutions (1:3.4) of a 2 mM stock solution in a clear, 384-well microtiter plate (Greiner Bio-One, Frickenhausen, Germany). From there, 50 nl were transferred in a dark test plate (Greiner Bio-One, Frickenhausen, Germany). The assay was initiated by addition of 2 μL of a 2,5-fold concentrated His-BCL-2 solution (usually for a 1 nM end concentration in 5 μL reaction volume) in aqueous assay buffer [50 mM Tris/HCl pH 7, 100 mM sodium chloride (NaCl), 50 mM potassium fluoride (KF), 0.005% Tween-20, 2 mM DTT, 0.1% bovine gamma globulin (BGG)] to the compounds in the assay plate. This was followed by a 10-minute incubation step at 22° C. for pre-equilibration of the putative complex between His-BCL-2 and the compounds. After that, 3 μL of a 1.67-fold concentrated solution (in assay buffer) consisting of Bad BH3-derived peptide (1 nM end concentration) and TR-FRET detection reagents [1.67 nM anti-His-Eu cryptate and 1.67 nM streptavidin-XL665 (both from Cisbio Bioassays, Codolet, France)], were added.
The mixture was incubated in the dark for one hour at 22° C. and then overnight at 4° C. The formation of BCL-2/Bad complexes was determined by measuring the resonance energy transfer of the anti-His-Eu-cryptate antibody to the streptavidin-XL665 present in the reaction. For that purpose, the fluorescence emission at 620 nm and 665 nm after excitation at 330-350 nm was measured in a TR-FRET measuring instrument, for instance a Rubystar or a Pherastar (both from BMG Lab Technologies, Offenburg, Germany) or a Viewlux (Perkin-Elmer). The ratio of the emission at 665 nm and at 622 nm was used as indicator of the amount of BCL-2/Bad complexes present.
The resulting data (ratio) were normalized, taking 0% inhibition as the mean value of control measurements (usually 32 data points) where all reagents were included. In this case 50 nl DMSO were used instead of compounds. […] IC50 values were determined by regression analysis based on a 4 parameter equation (minimum, maximum, IC50, Hill; Y=Max+(Min−Max)/(1+(X/IC50)^Hill) using the Screener Software (Genedata).

SUDHL5 cells [1] = experiment: Induction of caspase-3/7 activity in SUDHL5 cells (Assay 4); assay type: cell-based
Procedure, shortened: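 Read-out: Caspase-Glo 3/7 luminescence (1 h, 37 °C) after cells, plated overnight, were treated with compounds for 3 h at 37 °C. Signal corrected for cell-free medium background and expressed relative to DMSO control mean.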

SUDHL5 cells [2] = experiment: Induction of cytotoxicity in SUDHL5 cells (Assay 6); assay type: cell-based
Procedure, shortened: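 Cells plated overnight at 37 °C, then exposed to compound for 5 h in a humidified incubator at 37 °C. Viability read by CellTiter-Glo luminescence after 15 min shaking at room temperature; cell-free medium served as control.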

AMO-1 cells = experiment: Antiproliferation assay AMO-1 (Assay 7); assay type: cell-based
Procedure, shortened: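 Luminescent viability signal (CellTiter-Glo) after 72 h of treatment served as read-out. IC50 values were derived with day 0 luminescence as CI and DMSO wells as C0.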

[3] = Homo sapiens, SU-DHL-5, 3 h, caspase-3/7 induction, 3 h; read-out: Caspase SUDHL5 EC50 (median)
[4] = Homo sapiens, SU-DHL-5, 5 h, 5 h, CellTiter-Glo; read-out: Cytotox SUDHL5 IC50 (median)
[5] = read-out: Caspase SUDHL5 EC50 (median); caspase-3/7 induction, 3 h
[6] = 5 h, CellTiter-Glo; read-out: Cytotox SUDHL5 IC50 (median)
[7] = read-out: Antiproli AMO-1 IC50 median; 72 h, CellTiter-Glo
[8] = caspase-3/7 induction, 3 h; read-out: Caspase SUDHL5 EC50 (median)
[9] = read-out: Cytotox SUDHL5 IC50 (median); 5 h, CellTiter-Glo

Chain of BCL-2 (P10415 1-211): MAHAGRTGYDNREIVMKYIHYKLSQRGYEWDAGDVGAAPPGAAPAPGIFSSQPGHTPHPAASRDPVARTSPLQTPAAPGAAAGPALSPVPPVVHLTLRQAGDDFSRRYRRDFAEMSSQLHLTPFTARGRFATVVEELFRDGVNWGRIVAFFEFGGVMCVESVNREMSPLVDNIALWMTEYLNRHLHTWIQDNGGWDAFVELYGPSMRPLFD

Row | Structure (SMILES) | IC50 (BCL-2) | EC50 (SUDHL5 cells [1]; [5]) | IC50 (SUDHL5 cells [2]; [6]) | also measured
1 | CCc1c2c(nn1C)C(CCO)OCCCCn1c(C(=O)O)c(CCCOc3cccc4cc(F)ccc34)c3ccc(Cl)c-2c31 (racemic) [Example 44, (rac)-4-chloro-3-ethyl-7-{3-[(6-fluoronaphthalen-1-yl)oxy]propyl}-(15-rac)-(2-hydroxyethyl)-2-methyl-2,10,11,12,13,15-hexahydropyrazolo[4′,3′:9,10][1,6]oxazacycloundecino[8,7,6-hi]indole-8-carboxylic Acid] | > 20000 nM |  |  | EC50 (SUDHL5 cells [1]; [3]): 120 nM; IC50 (SUDHL5 cells [2]; [4]): 140 nM; IC50 (AMO-1 cells; Homo sapiens, AMO1, 72 h, 72 h, CellTiter-Glo; read-out: Antiproli AMO-1 IC50 median): 161 nM
2 | CCc1c2c(nn1C)C(CCOC)OCCCCn1c(C(=O)O)c(CCCOc3cccc4cc(F)ccc34)c3ccc(Cl)c-2c31 (single isomer, unassigned; enantiomer 1) [Example 42, (+)-4-chloro-3-ethyl-7-{3-[(6-fluoronaphthalen-1-yl)oxy]propyl}-15-(2-methoxyethyl)-2-methyl-2,10,11,12,13,15-hexahydropyrazolo[4′,3′:9,10][1,6]oxazacycloundecino[8,7,6-hi]indole-8-carboxylic Acid—N-ethylethanamine Salt (Enantiomer 1)] | > 20000 nM | 14 nM | 55 nM | IC50 (AMO-1 cells; [7]): 96.9 nM
3 | Cc1c2c(nn1C)C(CCO)OCCCCn1c(C(=O)O)c(CCCOc3cccc4ccccc34)c3ccc(Cl)c-2c31 (single isomer, unassigned; enantiomer 1) [Example 31, (+)-4-chloro-15-(2-hydroxyethyl)-2,3-dimethyl-7-{3-[(naphthalen-1-yl)oxy]propyl}-2,10,11,12,13,15-hexahydropyrazolo[4′,3′:9,10][1,6]oxazacycloundecino[8,7,6-hi]indole-8-carboxylic Acid (Enantiomer 1)] | > 20000 nM |  | 370 nM | EC50 (SUDHL5 cells [1]; [8]): 280 nM; IC50 (AMO-1 cells; 72 h, CellTiter-Glo; read-out: Antiproli AMO-1 IC50 median): 326 nM
4 | CCc1c2c(nn1C)C(CCN1CCN(C)CC1)OCCCCn1c(C(=O)O)c(CCCOc3cccc4cc(F)ccc34)c3ccc(Cl)c-2c31 (racemic) [Example 71, (rac)-4-chloro-3-ethyl-7-{3-[(6-fluoronaphthalen-1-yl)oxy]propyl}-2-methyl-(15-rac)-[2-(4-methylpiperazin-1-yl)ethyl]-2,10,11,12,13,15-hexahydropyrazolo[4′,3′:9,10][1,6]oxazacycloundecino[8,7,6-hi]indole-8-carboxylic Acid—N-ethylethanamine Salt (Mixture 2 Od Stereoisomers)] | > 20000 nM |  |  | IC50 (AMO-1 cells; [7]): 209 nM
5 | Cc1c2c(nn1C)C(C)OCCCCn1c(C(=O)O)c(CCCOc3cccc4ccccc34)c3cccc-2c31 (racemic) [Example 1, (rac)-2,3,15-trimethyl-7-[3-(naphthalen-1-yloxy)propyl]-2,10,11,12,13,15-hexahydropyrazolo[4′,3′:9,10][1,6]oxazacycloundecino[8,7,6-hi]indole-8-carboxylic Acid (Mixture of Stereoisomers)] | > 20000 nM |  |  | EC50 (SUDHL5 cells [1]; [3]): 2300 nM; IC50 (SUDHL5 cells [2]; [4]): 2800 nM
6 | Cc1c2c(nn1C)C(C)OCCCCn1c(C(=O)O)c(CCCOc3cccc4ccccc34)c3cccc-2c31 (single isomer, unassigned; stereoisomer 1) [Example 2, 2,3,15-trimethyl-7-[3-(naphthalen-1-yloxy)propyl]-2,10,11,12,13,15-hexahydropyrazolo[4′,3′:9,10][1,6]oxazacycloundecino[8,7,6-hi]indole-8-carboxylic Acid Trifluoroacetic Acid Salt (Stereoisomer 1)] | > 20000 nM | 1200 nM |  | IC50 (SUDHL5 cells [2]; [9]): 1300 nM
7 | CCc1c2c(nn1C)C(CCN1CCN(C)CC1)OCCCCn1c(C(=O)O)c(CCCOc3cccc4cc(F)ccc34)c3ccc(Cl)c-2c31 (racemic) [Example 68, 4-chloro-3-ethyl-7-{3-[(6-fluoronaphthalen-1-yl)oxy]propyl}-2-methyl-(15-rac)-[2-(4-methylpiperazin-1-yl)ethyl]-2,10,11,12,13,15-hexahydropyrazolo[4′,3′:9,10][1,6]oxazacycloundecino[8,7,6-hi]indole-8-carboxylic Acid—N-ethylethanamine Salt (Mixture 1 of Stereoisomers)] | > 20000 nM |  |  | IC50 (AMO-1 cells; [7]): 772 nM
8 | Cc1c2c(nn1C)C(C)OCCCCn1c(C(=O)O)c(CCCOc3cccc4ccccc34)c3cccc-2c31 (single isomer, unassigned; stereoisomer 2) [Example 3, 2,3,15-trimethyl-7-[3-(naphthalen-1-yloxy)propyl]-2,10,11,12,13,15-hexahydropyrazolo[4′,3′:9,10][1,6]oxazacycloundecino[8,7,6-hi]indole-8-carboxylic Acid Trifluoroacetic Acid Salt (Stereoisomer 2)] | > 20000 nM | > 33000 nM |  | IC50 (SUDHL5 cells [2]; [9]): > 33000 nM
9 | Cc1c2c(nn1C)C(CCN1CCOCC1)OCCCCn1c(C(=O)O)c(CCCOc3cccc4ccccc34)c3ccc(F)c-2c31 (racemic) [Example 7, (rac)-4-fluoro-2,3-dimethyl-15-[2-(morpholin-4-yl)ethyl]-7-[3-(naphthalen-1-yloxy)propyl]-2,10,11,12,13,15-hexahydropyrazolo[4′,3′:9,10][1,6]oxazacycloundecino[8,7,6-hi]indole-8-carboxylic Acid] | > 20000 nM |  |  | EC50 (SUDHL5 cells [1]; [3]): 200 nM; IC50 (SUDHL5 cells [2]; [4]): 240 nM
10 | Cc1c2c(nn1C)C(CCN1CCOCC1)OCCCCn1c(C(=O)O)c(CCCOc3cccc4ccccc34)c3ccc(F)c-2c31 (single isomer, unassigned; enantiomer 2) [Example 9, 4-fluoro-2,3-dimethyl-15-[2-(morpholin-4-yl)ethyl]-7-{3-[(naphthalen-1-yl)oxy]propyl}-2,10,11,12,13,15-hexahydropyrazolo[4′,3′:9,10][1,6]oxazacycloundecino[8,7,6-hi]indole-8-carboxylic Acid—N-ethylethanamine Salt (Enantiomer 2)] | > 20000 nM | 6400 nM | 5400 nM | 
11 | Cc1c2c(nn1C)C(CCN1CCOCC1)OCCCCn1c(C(=O)O)c(CCCOc3cccc4ccccc34)c3cccc-2c31 (single isomer, unassigned; stereoisomer 2) [Example 6, 2,3-dimethyl-15-[2-(morpholin-4-yl)ethyl]-7-[3-(naphthalen-1-yloxy)propyl]-2,10,11,12,13,15-hexahydropyrazolo[4′,3′:9,10][1,6]oxazacycloundecino[8,7,6-hi]indole-8-carboxylic Acid (Stereoisomer 2)] | > 20000 nM |  | 22000 nM | EC50 (SUDHL5 cells [1]; [8]): 22000 nM
